In US20210095293A1, “METHODS OF TREATING CANCERS WITH GPR132 INHIBITORS” (The Board of Regents of the University of Texas System, priority 2016, published 2021):

What was measured:
Type in all cases: cell-based, mouse
[1] = test system: AKT/mTOR signaling; test: PathScan Akt Signaling Antibody Array in macrophages; conditions: lactate 5 mM for 15 min
Protocol: FIG. 20. Lactate activates macrophage AKT/mTOR signaling via Gpr132. WT and Gpr132-KO bone marrow-derived macrophages were serum starved for 24 hrs. After treatment with lactate (5 mM) for 15 min, cell lysate was harvested for detecting the activation status of AKT signaling pathway using a PathScan Akt Signaling Antibody Array Kit. WT, wild-type; Gpr132-KO, Gpr132 knockout.
To identify the signaling pathways that may mediate the function of lactate-Gpr132 axis in M2 macrophage activation, PathScan Akt Signaling Antibody Array was used to screen potential targets due to the importance of the Akt pathway in macrophage polarization. […] These findings reveal that lactate activation of Gpr132 facilitates macrophage M2 activation by augmenting AKT/mTOR signaling.
Samples of 20 μg protein were applied to SDS polyacrylamide gels. After protein transfer, membranes were incubated with antibodies for Arg-1 (rabbit polyclonal, Santa Cruz Biotechnology), CD206, Gpr132, or β-actin (mouse monoclonal, Sigma) (1:1000) overnight at 4° C. […] Densitometric quantification was performed by Image-Pro Plus 6.0 software (Media Cybernetics). PathScan Akt Signaling Antibody Array (Cell Signaling) was incubated with macrophage proteins and analyzed following kit instructions.

[2] = test system: breast cancer cells (EO771, 4T1.2); test: Boyden chamber assay, cancer cell invasion (matrigel)
Protocol: (§1) FIGS. 11A-11C. Lactate-activated macrophage promotes cancer cell adhesion, migration and invasion via Gpr132. (FIG. 11A) Adherence assays. 4T1.2 cells were suspended in fibronectin ([…]) pre-coated plates with CM from spleen-derived macrophages (mf) that were treated with 4T1.2 CM or lactate (5 mM) with or without Gpr132 antibody (6 mg/ml) or normal IgG (6 mg/ml) for 10 min. The adhered cells were stained with crystal violet, dissolved in 1% Triton X-100 and measured by OD590. (FIGS. 11B-11C) Boyden chamber assay of cancer cell migration and invasion. 4T1.2 cells (B) or EO771 cells (FIG. 11C) were plated on the upper chamber inserts, with untreated (Control), 4T1.2 CM-activated or lactate-activated spleen-derived WT or Gpr132-KO macrophages plated in the lower chambers. For invasion assay, the inserts were pre-coated with 60 μl matrigel. After migration for 6 hrs (FIG. 11B) or invasion for 24 hrs (FIG. 11C), the migrated or invaded cells were stained with crystal violet and counted as cells per field of view under microscope (n=3-4); For (FIG. 11C), the first bar of each data set of the bar graphs represents the control mf, and the second bar represents Gpr132KO; *p<0.05; **p<0.01; ***p<0.005; ****p<0.001. Scale bar, 500 μm.
(§2) FIGS. 23A-23B. Cancer cell-derived lactate activates macrophages to promote cancer cell migration and invasion via Gpr132. (FIGS. 23A-23B) Boyden chamber assay. EO771 or 4T1.2 cells were cultured in the presence or absence of oxamic acid (90 mM) for 3 days. CM was harvested after the cells were cultured for another 24 hrs without oxamic acid. […] After migration for 6 hrs (FIG. 23A) or invasion for 24 hrs (FIG. 23B), the migrated or invaded cells were stained with crystal violet and counted as cells per field of view under microscope (n=3-4); for (FIG. 23A), the bars in each data set of the bar graph represent, from left to right, control, EO771, Oxamic acid, and Oxamic acid+Lactate; for (FIG. 23B), the bars in each data set of the bar graph represent, from left to right, control, 4T1.2CM, Oxamic acid, and Oxamic acid+Lactate; *p<0.05; ****p<0.001. […]

[3] = test system: breast cancer cells (4T1.2, EO771); test: Boyden chamber assay, cancer cell migration
Protocol: as §1
as §2, with “acid. As a rescue, CM of oxamic acid-treated EO771 or 4T1.2 cells was supplemented with exogenous lactate.” for “acid.”
Migration or invasion of breast cancer cells was examined using 24-well Boyden chambers (Corning, Corning, N.Y.) with transwell inserts of […] pore size, coated without (for migration) or with matrigel (for invasion) as previously reported. […] The migrated or invaded cells were fixed with methanol and stained with crystal violet (0.05%, sigma), and then counted as cells per field of view under microscope or measured as OD570 after crystal violet was dissolved.

[4] = exogenous lactate, WT macrophages

SMILES: CC(O)C(=O)O (stereo not shown) [lactate]
- increase of AKT/mTOR pathway phosphorylation in Gpr132-KO macrophages ([1]; Gpr132-KO BMDMs): not
- phosphorylation of AKT (Thr308), mTOR (Ser2481), S6 Ribosomal protein (Ser235/236) and RSK-1 (Thr421/Ser424) in WT macrophages ([1]; serum starved WT BMDMs): increased
- breast cancer cell invasion induced by activated macrophages, Gpr132 deletion ([2]; EO771 cells, 24 hrs, Gpr132-KO macrophages): completely abrogated
- rescue of invasion by addition to oxamic acid-pretreated cancer cell CM [2, 4]: restored
- number of migrated cancer cells with activated WT macrophages ([3]; 4T1.2 cells, 6 hrs, vs untreated WT macrophages): significantly enhanced
- effects on cancer cell migration with Gpr132-KO macrophages ([3]; Gpr132 deletion in macrophages): attenuated
- rescue of migration by addition to oxamic acid-pretreated cancer cell CM [3, 4]: restored
